Data from ChEMBL document CHEMBL1629667, “Activities of dalbavancin against a worldwide collection of 81,673 gram-positive bacterial isolates” (2009).
Values after ≈ are worked out from the molar mass of the structure shown.

Key:
Assay type in all cases: functional
Enterococcus faecalis [1] = assay: Antimicrobial activity against Vancomycin-nonsusceptible Enterococcus faecalis assessed as percent resistant isolates by broth microdilution method
Enterococcus faecium [2] = assay: Antimicrobial activity against Vancomycin-nonsusceptible Enterococcus faecium assessed as percent resistant isolates by broth microdilution method
Streptococcus [3] = assay: Antimicrobial activity against Beta-hemolytic Streptococcus assessed as percent resistant isolates by broth microdilution method
Enterococcus faecium [4] = assay: Antimicrobial activity against Vancomycin-susceptible Enterococcus faecium assessed as percent resistant isolates by broth microdilution method
Staphylococcus aureus [5] = assay: Antimicrobial activity against Oxacillin-resistant Staphylococcus aureus assessed as percent resistant isolate by broth microdilution method
Staphylococcus aureus [6] = assay: Antimicrobial activity against Oxacillin-susceptible Staphylococcus aureus by broth microdilution method
Staphylococcus aureus [7] = assay: Antimicrobial activity against Oxacillin-resistant Staphylococcus aureus by broth microdilution method
Staphylococcus [8] = assay: Antimicrobial activity against Oxacillin-susceptible coagulase-negative Staphylococcus by broth microdilution method
Staphylococcus [9] = assay: Antimicrobial activity against Oxacillin-resistant coagulase-negative Staphylococcus by broth microdilution method
Enterococcus faecalis [10] = assay: Antimicrobial activity against Vancomycin-susceptible Enterococcus faecalis by broth microdilution method
Enterococcus faecalis [11] = assay: Antimicrobial activity against Vancomycin-nonsusceptible Enterococcus faecalis by broth microdilution method
Enterococcus faecium [12] = assay: Antimicrobial activity against Vancomycin-susceptible Enterococcus faecium by broth microdilution method
Enterococcus faecium [13] = assay: Antimicrobial activity against Vancomycin-nonsusceptible Enterococcus faecium by broth microdilution method
Streptococcus [14] = assay: Antimicrobial activity against Beta-hemolytic Streptococcus by broth microdilution method
Streptococcus [15] = assay: Antimicrobial activity against viridans group Streptococcus by broth microdilution method
Staphylococcus aureus [16] = assay: Antimicrobial activity against Oxacillin-susceptible Staphylococcus aureus assessed as percent susceptible isolate by broth microdilution method
Staphylococcus [17] = assay: Antimicrobial activity against Oxacillin-susceptible coagulase-negative Staphylococcus assessed as percent susceptible isolate by broth microdilution method
Staphylococcus [18] = assay: Antimicrobial activity against Oxacillin-resistant coagulase-negative Staphylococcus assessed as percent susceptible isolate by broth microdilution method
Enterococcus faecalis [19] = assay: Antimicrobial activity against Vancomycin-susceptible Enterococcus faecalis assessed as percent susceptible isolate by broth microdilution method
Enterococcus faecalis [20] = assay: Antimicrobial activity against Vancomycin-nonsusceptible Enterococcus faecalis assessed as percent susceptible isolate by broth microdilution method
Enterococcus faecium [21] = assay: Antimicrobial activity against Vancomycin-susceptible Enterococcus faecium assessed as percent susceptible isolate by broth microdilution method
Enterococcus faecium [22] = assay: Antimicrobial activity against Vancomycin-nonsusceptible Enterococcus faecium assessed as percent susceptible isolate by broth microdilution method
Streptococcus [23] = assay: Antimicrobial activity against Beta-hemolytic Streptococcus assessed as percent susceptible isolate by broth microdilution method
Streptococcus [24] = assay: Antimicrobial activity against viridans group Streptococcus assessed as percent susceptible isolate by broth microdilution method
Enterococcus faecalis [25] = assay: Antimicrobial activity against Vancomycin-susceptible Enterococcus faecalis assessed as percent resistant isolates by broth microdilution method
Staphylococcus aureus [26] = assay: Antimicrobial activity against Oxacillin-susceptible Staphylococcus aureus assessed as percent resistant isolates by broth microdilution method
Staphylococcus aureus [27] = assay: Antimicrobial activity against Oxacillin-resistant Staphylococcus aureus assessed as percent susceptible isolate by broth microdilution method
Staphylococcus [28] = assay: Antimicrobial activity against Oxacillin-susceptible coagulase-negative Staphylococcus assessed as percent resistant isolate by broth microdilution method
Staphylococcus [29] = assay: Antimicrobial activity against Oxacillin-resistant coagulase-negative Staphylococcus assessed as percent resistant isolate by broth microdilution method
Streptococcus [30] = assay: Antimicrobial activity against viridans group Streptococcus assessed as percent resistant isolates by broth microdilution method

| Compound | Activity (Enterococcus faecalis [1]) [%] | Activity (Enterococcus faecium [2]) [%] | Activity (Enterococcus faecium [4]) [%] | Activity (Staphylococcus aureus [5]) [%] | MIC50 (Staphylococcus aureus [6]) [µg/mL] | MIC90 (Staphylococcus aureus [6]) [µg/mL] | MIC50 (Staphylococcus aureus [7]) [µg/mL] | MIC90 (Staphylococcus aureus [7]) [µg/mL] | MIC50 (Staphylococcus [8]) [µg/mL] | MIC90 (Staphylococcus [8]) [µg/mL] | MIC50 (Staphylococcus [9]) [µg/mL] | MIC50 (Streptococcus [14]) [µg/mL] | MIC90 (Streptococcus [14]) [µg/mL] | MIC50 (Streptococcus [15]) [µg/mL] | MIC90 (Streptococcus [15]) [µg/mL] | Activity (Staphylococcus aureus [16]) [%] | Activity (Staphylococcus [17]) [%] | Activity (Staphylococcus [18]) [%] | Activity (Streptococcus [23]) [%] | Activity (Streptococcus [24]) [%] | other results |
| --- | --- | --- | --- | --- | --- | --- | --- | --- | --- | --- | --- | --- | --- | --- | --- | --- | --- | --- | --- | --- | --- |
| CC(=O)NC[C@H]1CN(c2ccc(N3CCOCC3)c(F)c2)C(=O)O1 [LINEZOLID] | 1.4 | 1.8 | 0.3 | 0.04 | 2 (≈ 5.93 µM) | 2 (≈ 5.93 µM) | 1 (≈ 2.96 µM) | 2 (≈ 5.93 µM) | 1 (≈ 2.96 µM) | 1 (≈ 2.96 µM) | 1 (≈ 2.96 µM) | 1 (≈ 2.96 µM) | 1 (≈ 2.96 µM) | 1 (≈ 2.96 µM) | 1 (≈ 2.96 µM) | 100 | 99.9 | 99.5 | 100 | 99.9 | Activity (Streptococcus [3]): 1.3%; MIC90 (Staphylococcus [9]): 1 µg/mL (≈ 2.96 µM); MIC50 (Enterococcus faecalis [10]): 1 µg/mL (≈ 2.96 µM); MIC90 (Enterococcus faecalis [10]): 2 µg/mL (≈ 5.93 µM); MIC50 (Enterococcus faecalis [11]): 1 µg/mL (≈ 2.96 µM); MIC90 (Enterococcus faecalis [11]): 2 µg/mL (≈ 5.93 µM); MIC50 (Enterococcus faecium [12]): 1 µg/mL (≈ 2.96 µM); MIC90 (Enterococcus faecium [12]): 2 µg/mL (≈ 5.93 µM); MIC50 (Enterococcus faecium [13]): 1 µg/mL (≈ 2.96 µM); MIC90 (Enterococcus faecium [13]): 2 µg/mL (≈ 5.93 µM); Activity (Enterococcus faecalis [19]): 99.8%; Activity (Enterococcus faecalis [20]): 98.6%; Activity (Enterococcus faecium [21]): 99.6%; Activity (Enterococcus faecium [22]): 97.6%; Activity (Enterococcus faecalis [25]): 0.1% |
| GENTAMICIN | 71.6 | 35.7 | 38.2 | 24.8 | < 2 | < 2 | < 2 | > 8 | < 2 | < 2 | 4 |  |  |  |  | 97.1 | 95 | 50.7 |  |  | Activity (Staphylococcus aureus [26]): 2.6%; MIC90 (Staphylococcus [9]): > 8 µg/mL; MIC50 (Enterococcus faecalis [10]): < 500 µg/mL; MIC90 (Enterococcus faecalis [10]): > 1000 µg/mL; Activity (Staphylococcus aureus [27]): 74.1%; Activity (Enterococcus faecalis [19]): 68.5%; Activity (Enterococcus faecalis [20]): 28.4%; Activity (Enterococcus faecium [21]): 61.8%; Activity (Enterococcus faecium [22]): 64.3%; Activity (Staphylococcus [28]): 3.1%; Activity (Staphylococcus [29]): 35.3%; Activity (Enterococcus faecalis [25]): 31.5% |
| C[C@H]1COc2c(N3CCN(C)CC3)c(F)cc3c(=O)c(C(=O)O)cn1c23.C[C@H]1COc2c(N3CCN(C)CC3)c(F)cc3c(=O)c(C(=O)O)cn1c23.O [LEVOFLOXACIN] |  |  |  | 80.1 | ≤ 0.5 | ≤ 0.5 | > 4 | > 4 | ≤ 0.5 | 4 | 4 | 0.5 | 1 | 1 | 2 | 92.8 | 87.5 | 31.8 | 98.6 | 95.7 | Activity (Streptococcus [3]): 8.2%; Activity (Streptococcus [30]): 3.6%; Activity (Staphylococcus aureus [26]): 6.7%; MIC (Staphylococcus aureus [6]): ≤ 0.5 µg/mL; MIC (Staphylococcus [8]): ≤ 0.5 µg/mL; MIC90 (Staphylococcus [9]): > 4 µg/mL; MIC (Streptococcus [14]): 0.5 µg/mL; Activity (Staphylococcus aureus [27]): 18.3%; Activity (Staphylococcus [28]): 11.1%; Activity (Staphylococcus [29]): 61.4% |
| CO/N=C(\C(=O)N[C@@H]1C(=O)N2C(C(=O)O)=C(CSc3nc(=O)c(O)nn3C)CS[C@H]12)c1csc(N)n1 [CEFTRIAXONE] |  |  |  |  |  |  |  |  |  |  |  | 0.25 (≈ 0.451 µM) | 0.25 (≈ 0.451 µM) | 0.25 (≈ 0.451 µM) | 1 (≈ 1.8 µM) |  |  |  | 99.9 | 92.5 | Activity (Streptococcus [30]): 4.3%; MIC (Streptococcus [14]): 0.25 µg/mL (≈ 0.451 µM); MIC (Streptococcus [15]): 0.25 µg/mL (≈ 0.451 µM) |
| CC1(C)S[C@@H]2[C@H](NC(=O)[C@H](N)c3ccccc3)C(=O)N2[C@H]1C(=O)O [AMPICILLIN] | 4 | 99.2 | 84.4 |  |  |  |  |  |  |  |  |  |  |  |  |  |  |  |  |  | MIC (Enterococcus faecalis [10]): ≤ 2 µg/mL; MIC50 (Enterococcus faecalis [10]): ≤ 2 µg/mL; MIC90 (Enterococcus faecalis [10]): ≤ 2 µg/mL; MIC (Enterococcus faecalis [11]): ≤ 2 µg/mL; MIC50 (Enterococcus faecalis [11]): ≤ 2 µg/mL; MIC90 (Enterococcus faecalis [11]): 4 µg/mL (≈ 11.4 µM); MIC50 (Enterococcus faecium [12]): > 16 µg/mL; MIC90 (Enterococcus faecium [12]): > 16 µg/mL; MIC50 (Enterococcus faecium [13]): > 16 µg/mL; MIC90 (Enterococcus faecium [13]): > 16 µg/mL; Activity (Enterococcus faecalis [19]): 99.6%; Activity (Enterococcus faecalis [20]): 96%; Activity (Enterococcus faecium [21]): 15.6%; Activity (Enterococcus faecium [22]): 0.8%; Activity (Enterococcus faecalis [25]): 0.2% |
| CC[C@H]1OC(=O)[C@H](C)[C@@H](O[C@H]2C[C@@](C)(OC)[C@@H](O)[C@H](C)O2)[C@H](C)[C@@H](O[C@@H]2O[C@H](C)C[C@H](N(C)C)[C@H]2O)[C@](C)(O)C[C@@H](C)C(=O)[C@H](C)[C@@H](O)[C@]1(C)O [ERYTHROMYCIN] |  |  |  | 88.8 | ≤ 0.25 | > 2 | > 2 |  | ≤ 0.25 | > 2 | > 2 | 0.25 (≈ 0.341 µM) | 2 (≈ 2.73 µM) | 0.25 (≈ 0.341 µM) | 2 (≈ 2.73 µM) | 78.7 | 66 | 24.1 | 79.6 | 56 | Activity (Streptococcus [30]): 41.7%; Activity (Staphylococcus aureus [26]): 20.7%; MIC (Staphylococcus aureus [6]): ≤ 0.25 µg/mL; MIC (Staphylococcus [8]): ≤ 0.25 µg/mL; MIC (Streptococcus [14]): 0.25 µg/mL (≈ 0.341 µM); MIC (Streptococcus [15]): 0.25 µg/mL (≈ 0.341 µM); Activity (Staphylococcus aureus [27]): 10.9%; Activity (Staphylococcus [28]): 33.6%; Activity (Staphylococcus [29]): 75.4% |
